This note sets out measurements from US10125119B2, “Series of resveratrol-derivative fluorescently labeled molecules and synthesis method thereof” (Hangzhou Normal University, priority 2017, dated 2018).

Molecules are shown by their SMILES.

Usually melting point stands for the temperature, or range, at which the solid turns liquid. Compound `COc1cc(/C=C/c2ccc(Oc3nc(Cl)nc(-n4cc(-c5ccc(C(=C(c6ccccc6)c6ccccc6)c6ccccc6)cc5)nn4)n3)cc2)cc(OC)c1` [Product (I)] gave a melting point of 165 to 166 °C.
